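Test compounds were applied to cells in 96-well plates for 48 hours at 5 doses. GI50 is the concentration that inhibits growth by half.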 Active and inactive are the calls of the source. Cut-off read from the data, not from the text of the source: active = GI50 up to about 1.1 µM and inactive = higher.
Assays:
Assay in all cases: NCI-60 cell line screen, 48 h
NCI-H23 = system: NCI-H23
SK-MEL-2 = system: SK-MEL-2
OVCAR-8 = system: OVCAR-8
UACC-62 = system: UACC-62
SF-268 = system: SF-268
CAKI-1 = system: CAKI-1
A498 = system: A498
SF-539 = system: SF-539
Malme-3M = system: Malme-3M
MDA-MB-231 = system: MDA-MB-231
IGROV-1 = system: IGROV-1
NCI-H460 = system: NCI-H460
TK-10 = system: TK-10
SW-620 = system: SW-620
MCF7 = system: MCF7
U-251 = system: U-251
HCT-15 = system: HCT-15
M19-MEL = system: M19-MEL
MDA-N = system: MDA-N
SNB-75 = system: SNB-75

Row | SMILES | GI50 (NCI-H23) | GI50 (SK-MEL-2) | GI50 (OVCAR-8) | GI50 (UACC-62) | GI50 (SF-268) | GI50 (CAKI-1) | GI50 (A498) | GI50 (SF-539) | GI50 (Malme-3M) | GI50 (MDA-MB-231) | GI50 (IGROV-1) | GI50 (NCI-H460) | GI50 (TK-10) | GI50 (SW-620) | GI50 (MCF7) | GI50 (U-251) | GI50 (HCT-15) [µM] | GI50 (M19-MEL) | GI50 (MDA-N) | GI50 (SNB-75)
1 | COc1cc(/C=C2\CCC/C(=C\c3ccc(O)c(OC)c3)C2=O)ccc1O [CYCLOVALONE] | 6.75 µM (inactive) | 3.56 µM (inactive) | 1.72 µM (inactive) | 1.96 µM (inactive) | 2.39 µM (inactive) | 2.81 µM (inactive) | 3.99 µM (inactive) | 2.04 µM (inactive) | 2.17 µM (inactive) | 5.96 µM (inactive) | 2.77 µM (inactive) | 2.59 µM (inactive) | 5 µM (inactive) | 2.7 µM (inactive) | 4.33 µM (inactive) | 2.08 µM (inactive) | 2.34 | 1.86 µM (inactive) | 2.42 µM (inactive) | –
2 | CCC1(O)C(=O)OCc2c1cc1n(c2=O)Cc2cc3cc4c(cc3nc2-1)OCO4 (centres undefined) | < 0.01 µM (active) | 0.127 µM (active) | < 0.01 µM (active) | < 0.01 µM (active) | < 0.0363 µM (active) | < 0.01 µM (active) | < 0.0103 µM (active) | 0.0316 µM (active) | 0.0164 µM (active) | 0.346 µM (active) | 0.0276 µM (active) | < 0.01 µM (active) | 0.31 µM (active) | < 0.0115 µM (active) | < 0.01 µM (active) | < 0.01 µM (active) | 0.0306 | < 0.01 µM (active) | – | < 0.01 µM (active)
3 | CCCCCCCCC(=O)NCCN(CCN)C(=O)CCCCCCCC | 17.3 µM (inactive) | 15.1 µM (inactive) | 10.7 µM (inactive) | 10.7 µM (inactive) | 6.87 µM (inactive) | 17.5 µM (inactive) | 21.9 µM (inactive) | 5.7 µM (inactive) | 17.9 µM (inactive) | 3.31 µM (inactive) | 7.46 µM (inactive) | 5.86 µM (inactive) | 14.6 µM (inactive) | 2.34 µM (inactive) | 4.75 µM (inactive) | 3.37 µM (inactive) | 5.19 | 5.74 µM (inactive) | 5.6 µM (inactive) | 7 µM (inactive)
4 | COc1cc(Cc2nccc3cc(OC)c(OC)cc23)c(C(C)=O)cc1OC | 124 µM (inactive) | 226 µM (inactive) | – | 53 µM (inactive) | 1.56 µM (inactive) | > 300 µM (inactive) | > 300 µM (inactive) | > 94.8 µM (inactive) | 19.7 µM (inactive) | 78.5 µM (inactive) | 173 µM (inactive) | – | 139 µM (inactive) | – | 144 µM (inactive) | 2.54 µM (inactive) | – | 64.9 µM (inactive) | 28.2 µM (inactive) | 3.09 µM (inactive)

Reference: ChEMBL document CHEMBL1201862, “PubChem BioAssay data set” (2004)
